Data taken from publication PMC12388125, “Design, Synthesis, and Pharmacological Activity of the N-(4-(1H-1,2,4-Triazol-1-yl)phenyl)-substituted-amide Derivatives” (Molecules, 2025).
“Also recorded” adds a separate entry of the source. Where two headings read alike, the source gives them in different places.

What was measured:
MES-induced seizures [1] = test: animal or person; assay type: in vivo, Kunming mice; details: for ED50 (MES) / PI (TD50/ED50) MES / ED50: 0.5 h; for ED50 (MES): value (95% CI); for PI (TD50/ED50) MES: Kunming, mouse, in vivo; for ED50 / minimal effective dose: Mus musculus; for ED50: as given in the text; for minimal effective dose: ip, doses 30, 100, 300 mg/kg, read-out: MES, dose at which at least one of three animals was protected
Description: (§1) Pharmacological tests were performed using two experimental animal models, MES and scPTZ, which were divided into three dosage groups of 30, 100, and 300 mg/kg, and the anticonvulsant activity of the target compounds 6a–m and 9a–g, after 0.5 and 4 h of administration, respectively, were tested. Carbamazepine, which is effective in the MES model, was chosen as a positive control, and ethosuximide, which is effective in the scPTZ model, was chosen as a positive control. […]
Protection against the spread of
extension component of the seizure. […]

mice [2] = details: Kunming, mouse, in vivo, 0.5 h
Description: (§2) The neurotoxicity of the target compounds was tested using the ROT experimental model, which was divided into two dose groups, 100 and 300 mg/kg, and tested after 0.5 and 4 h of administration, respectively.
(§3) The neurotoxicity of the target compounds was determined using the ROT experimental model.
(§4) The neurotoxicity of the compounds wa s measured in mice using the rotarod test. Mice
(§5) we r e trained to stay on an accelerating rotarod (diameter, 3.2 cm) rotating at 10 rpm. Trained
(§6) animals we r e injected with the test compounds (i.p.) and neurotoxicity wa s measured as the
(§7) inability of the animal to maintain equilibrium on the rod for at least 1 min in each of the

[3] = system: pentylenetetrazole-induced clonic seizures; test: animal or person; assay type: in vivo, Kunming mice; details: for ED50 (scPTZ) / PI (TD50/ED50) scPTZ / ED50: 0.5 h; for ED50 (scPTZ): value (95% CI); for PI (TD50/ED50) scPTZ: Kunming, mouse, in vivo; for ED50 / minimal effective dose: Mus musculus, sc; for ED50: as given in the text, read-out: ED50 (scPTZ); for minimal effective dose: doses 30, 100, 300 mg/kg, read-out: scPTZ, dose at which at least one of three animals was protected
Description: as §1
The test compound wa s
Absence of clonic spasms indicated a […]

[4] = system: GABA content in brain tissue; test: GABA estimation in brain tissue; assay type: in vivo, Wistar rats; details: 30 mg/kg, n = 5
Description: The data obtained from the experiments were analyzed and processed and plotted using GraphPad Prism 8 software.
We i g h about 0.05 g of tissue sample in a homogenizer, add 450 µL of extracting solution
to homogenize, homogenize, transfer to an EP tube, mark the liquid level scale, and heat for 2
hours at 95°C. After heating, centrifuge at 8000 × g for 10 min and remove the supernatant for
① Standard tube: Ta k e 30 µL of different concentrations of standards and add them to
the corresponding 1.5 mL EP tube. Measurement tube: Ta k e 30 µL of sample supernatant and
add it to 1.5 mL EP tube. ② Add 50 µL of buffer solution and 40 µL of Chromogenic Agent A
to each tube in step, mix we l l , and let stand at room temperature for 5 min. ③ Add 60 µL of
Chromogenic Agent B to each tube in step, mix we l l , and heat at 95°C for 10 min, then cool at
ice bath. ④ Add 200 µL of supplementary solution to each tube in step and mix well. ⑤ Ta k e
200 µL into the corresponding we l l s of the enzyme plate, and measure the OD va l u e of each

mice [5] = test: Elevated plus maze (EPM) test; assay type: in vivo; details: n = 6
Description: The EPM experiment is a method for evaluating whether experimental animals have an anxiety response. The principle is that, in the face of new things, mice will generate curiosity to explore (open arm), while they have a nature of darkness (closed arm), the conflict behavior between the two occurs between exploration and avoidance, resulting in anxiety. Anxious behavior can be evaluated by comparing the retention time of mice in the open and closed arms.
Flumazenil is a selective BZ antagonist with a chemical structure similar to that of BZs, which acts on central benzodiazepine (BZ) receptors and thus blocks the receptors without producing BZ-like effects.
The apparatus consisted of a black acrylic maze with two opposite open arms (50×10 cm) and two opposite closed arms (50×10×40 cm) disposed like a plus sign with a central square of 10 cm2. Entire maze wa s elevated 50 cm above the floor. The test consisted in placing the rat in the central square of the maze facing one closed arm and allowing it to explore during 5 min. This procedure wa s performed in a quiet and dimly illuminated room. The scores analysed we r e the time spent in open and closed arms, and the number of entries to both […]
widely used as an anxiety index (time spent in open arms relative to the time spent in open […]
and closed arms). […]

[6] = Rotarod (ROT) neurotoxicity test; details: Kunming, mouse, in vivo, intraperitoneal
Description: as §2, §3, §4, §5, §6, §7

mice [7] = test: Rotarod (ROT) neurotoxicity test; details: for TD50 (ROT): 0.5 h, value (95% CI); for NT (neurotoxicity, ROT), dose at which at least one of three animals showed neurotoxicity: doses 100, 300 mg/kg
Description: as §2, §3, §4, §5, §6, §7

MES-induced seizures [8] = system: MES-induced seizures; design: method as in doi:10.1016/j.molstruc.2025.141611; details: cited from earlier work; for MES, dose at which at least one of three animals was protected: lead compound of previous study
[9] = system: pentylenetetrazole-induced clonic seizures; design: method as in doi:10.1016/j.molstruc.2025.141611; details: cited from earlier work; for scPTZ, dose at which at least one of three animals was protected: lead compound of previous study
mice [10] = system: mice; design: method as in doi:10.1016/j.molstruc.2025.141611; details: cited from earlier work; for NT (neurotoxicity, ROT): lead compound of previous study

SMILES | ED50 (MES) (MES-induced seizures [1]) | PI (TD50/ED50) MES (MES-induced seizures [1]) | ED50 (MES-induced seizures [1]) | TD50 (ROT) (mice [2]) | minimal effective dose (MES-induced seizures [1]; 0.5 h after administration) | minimal effective dose (MES-induced seizures [1]; 4 h after administration) | ED50 (scPTZ) [3] | PI (TD50/ED50) scPTZ [3] | ED50 [3] | minimal effective dose ([3]; 0.5 h after administration) | minimal effective dose ([3]; 4 h after administration) | GABA content in brain tissue vs control ([4]; 2 h after administration) | GABA content in brain tissue vs control ([4]; 7 d continuous administration) | TD50 (ROT) (mice [7]) | NT (neurotoxicity, ROT), dose at which at least one of three animals showed neurotoxicity (mice [7]; 0.5 h after administration) | NT (neurotoxicity, ROT), dose at which at least one of three animals showed neurotoxicity (mice [7]; 4 h after administration) | other results
NC(=O)N1c2ccccc2C=Cc2ccccc21 [Carbamazepine, reference compound] | 11.4 mg/kg | 6.1 | 11.4 mg/kg | 69.3 (75.4–63.8) mg |  |  |  |  |  |  |  |  |  |  |  |  | 
O=C(Nc1ccc(-n2cncn2)cc1)c1cccc(F)c1 [Compound 6f, N-(4-(1H-1,2,4-triazol-1-yl)phenyl)-3-fluorobenzamide] | 13.1 mg/kg | 36.3 | 13.1 mg/kg |  | 30 mg/kg | 30 mg/kg | 19.7 mg/kg | 24.2 | 19.7 mg/kg | 30 mg/kg | 30 mg/kg | do not show significant differences | showed significant differences | 476.7 (518.3–438.5) mg | >300 mg/kg | >300 mg/kg | EPM % of time in open arms vs control (mice [5]; 3 mg/kg): showed a significant difference; also recorded: showed significant differences; EPM % of time in open arms vs control (mice [5]; 6f 3 mg/kg + FMZ 5 mg/kg): also showed significant differences; EPM time in open arm vs 6f group (mice [5]; 6f 3 mg/kg + FMZ 5 mg/kg): significantly shortened the time of experimental animals in open arm; TD50 at 0.5 h [6]: 477 mg/kg
Cc1cccc(C(=O)Nc2ccc(-n3cncn3)cc2)c1 [Compound 6l, N-(4-(1H-1,2,4-triazol-1-yl)phenyl)-3-methylbenzamide] | 9.1 mg/kg | 45.9 | 9.1 mg/kg |  | 30 mg/kg | 30 mg/kg | 19 mg/kg | 22.1 | 19 mg/kg | 30 mg/kg | 30 mg/kg | do not show significant differences | showed significant differences | 419.5 (456.1–385.9) mg | >300 mg/kg | >300 mg/kg | EPM % of time in open arms vs control (mice [5]; 0.5 mg/kg): showed a significant difference; EPM % of time in open arms vs control (mice [5]; 6l 0.5 mg/kg + FMZ 5 mg/kg): did not show a significant difference; EPM time in open arm vs 6l group (mice [5]; 6l 0.5 mg/kg + FMZ 5 mg/kg): significantly shortened the time of the experimental animals in the open arm
CCC1(C)CC(=O)NC1=O (stereo not drawn) [Ethosuximide, reference compound] |  |  |  | 333.7 (362.8–306.9) mg |  |  | 94.4 mg/kg | 3.5 | 94.4 mg/kg |  |  |  |  |  |  |  | 
CCOC(=O)c1ncn2c1CN(C)C(=O)c1cc(F)ccc1-2 [Flumazenil, reference compound] |  |  |  |  |  |  |  |  |  |  |  |  |  |  |  |  | EPM % of time in open arms vs control (mice [5]; 5 mg/kg, listed as FMZ): did not show significant differences; also recorded: did not show a significant difference
CCCCCOc1cc(OCCCCC)n2ncnc2n1 [I] |  |  |  |  |  |  |  |  |  |  |  |  |  |  |  |  | MES, dose at which at least one of three animals was protected (MES-induced seizures [8]; 0.5 h): 30 mg/kg; MES, dose at which at least one of three animals was protected (MES-induced seizures [8]; 4 h): 30 mg/kg; ED50 (MES) (MES-induced seizures [8]; lead compound): 11.3 (12.3–10.4) mg; PI (TD50/ED50) MES (MES-induced seizures [8]; lead compound): 16.8; scPTZ, dose at which at least one of three animals was protected ([9]; 0.5 h): 30 mg/kg; scPTZ, dose at which at least one of three animals was protected ([9]; 4 h): 30 mg/kg; ED50 (scPTZ) ([9]; lead compound): 9.5 (10.4–8.8) mg; PI (TD50/ED50) scPTZ ([9]; lead compound): 20.0; NT (neurotoxicity, ROT) (mice [10]; 0.5 h): >150 mg/kg; NT (neurotoxicity, ROT) (mice [10]; 4 h): >150 mg/kg; TD50 (ROT) (mice [10]; lead compound): 190.7 (207.3–175.4) mg
